Measurements: patent US20260226037A1, “MICROTUBULE TARGETING AGENTS” (ARIEL SCIENTIFIC INNOVATIONS LTD., priority 2022, published 2026)
pIC50: −log10 of the molar value. Like-named read-outs stand apart in the source and are kept apart here.

Experiments:
[1] = system: RPMI 8226 cells; assay: XTT cytotoxicity, RPMI 8226; assay type: cell-based; details: Homo sapiens
Procedure: (§1) The cytotoxic activity of the novel family was evaluated against various tumor cells, including myeloma cells, acute lymphoblastic leukemia cells, acute monocytic leukemia cells, chronic myelogenous leukemia cells, pancreatic cancer cells, breast cancer cells, uterine sarcoma cells, cervix adenocarcinoma cells, ovary cancer cells, melanoma cells, osteosarcoma cells, prostate cancer cells, lung cancer cells, neuroblastoma cells and colorectal adenocarcinoma cells by XTT assay.

[2] = system: RPMI-DOX40 cells; assay: XTT cytotoxicity, RPMI-DOX40; assay type: cell-based; details: for IC50 ratio between resistant and non-resistant cells: RPMI-DOX40 / RPMI 8226
Procedure: as §1

[3] = system: RPMI-LR5 cells; assay: XTT cytotoxicity, RPMI-LR5; assay type: cell-based; details: for IC50 ratio between resistant and non-resistant cells: RPMI-LR5 / RPMI 8226
Procedure: as §1

[4] = system: RPMI-MR20 cells; assay: XTT cytotoxicity, RPMI-MR20; assay type: cell-based; details: for IC50 ratio between resistant and non-resistant cells: RPMI-MR20 / RPMI 8226
Procedure: as §1

[5] = system: MM1.S cells; assay: XTT cytotoxicity, MM1.S; assay type: cell-based; details: Homo sapiens
Procedure: as §1

[6] = system: MM1.R cells; assay: XTT cytotoxicity, MM1.R; assay type: cell-based; details: for IC50 ratio between resistant and non-resistant cells: MM1.R / MM1.S; for pIC50: MM.1R
Procedure: as §1

[7] = system: NALM6 cells; assay: XTT cytotoxicity, NALM6; assay type: cell-based; details: Homo sapiens, NALM-6
Procedure: as §1
(§2) Most tubulin-binding anticancer drugs currently used in the clinic are substrates for Pgp effux pump. […] The inventors tested the viability of NALM6 acute lymphoblastic leukemia cell line (ALL) and its corresponding doxorubicin resistant N6/ADR cell line that overexpress Pgp glycoprotein and has cross-resistance to vincristine.

[8] = system: N6/ADR cells; assay: XTT cytotoxicity, N6/ADR; assay type: cell-based; details: for IC50 ratio between resistant and non-resistant cells: N6/ADR / NALM6
Procedure: as §1, §2

[9] = system: MCF7 cells; assay: XTT cytotoxicity, MCF7; assay type: cell-based; details: Homo sapiens; MCF7, breast adenocarcinoma, non-resistant
Procedure: as §1

[10] = system: MCF7-VP cells; assay: XTT cytotoxicity, MCF7-VP; assay type: cell-based; details: for pIC50: Homo sapiens, MCF7-VP, breast adenocarcinoma, MRP overexpression; for IC50 ratio between resistant and non-resistant cells: MCF7-VP / MCF7
Procedure: as §1

[11] = system: MES-SA cells; assay: XTT cytotoxicity, MES-SA; assay type: cell-based; details: Homo sapiens, poorly differentiated uterine sarcoma, non-resistant
Procedure: as §1

[12] = system: MES-SA/DX5 cells; assay: XTT cytotoxicity, MES-SA/DX5; assay type: cell-based; details: for pIC50: Homo sapiens, MES-SA/DX5, uterine sarcoma, P-gp overexpression; for IC50 ratio between resistant and non-resistant cells: MES-SA/DX5 / MES-SA
Procedure: as §1

[13] = system: colchicine binding site on tubulin protein; assay: EBI competition assay, RPMI-8226 cells; assay type: cell-based; details: RPMI-8226 living cells
[14] = system: RPMI8226 cells; assay: Cell cycle distribution by flow cytometry; assay type: cell-based; details: 6 hours; IC50, IC50x2.5 and IC50x5 concentrations
Procedure: Cell cycle arrest is a shared consequence of MTAs treatment. The effects of cell cycle distribution were determined in RPMI8226 cells treated for 6 and 18 hours with a range of concentrations of the molecules. The cells were stained with propidium iodide and cell cycle distribution was measured using a cytoFLEX flow cytometer.

[15] = system: RPMI8226 myeloma cells; assay: Xenograft murine myeloma model, antitumor efficacy; assay type: in vivo, mice
Procedure: In vivo anti-cancer efficacy of the molecules was evaluated in a xenograft murine myeloma model. Male SCID mice (6-8 weeks old) were maintained in accordance with Institutional Animal Care Use Committee guidelines. Mice were housed in the Animal Research Facility of Ariel University and experiments were performed in accordance with approved protocols. […] Mice were sacrificed when mean tumor volume of vehicle treated group reached 1500 mm3, or mice appeared moribund to prevent unnecessary morbidity. Mean tumor volume represents the average of tumor volume in each treatment group during the experiment. The weight of the tumors was measured at the end of the experiment and expressed as mean tumor weight per group. Body weight is expressed as mean body mice weight per group. The individual relative tumor volume (RTV) was defined as Vx/V1, where Vx is the mean tumor volume in mm3 at a given time and V1 at the start of treatment. Relative tumor volume is determined by calculating RTV (%) (mean RTV of treated group)/(mean RTV of control group)). Relative tumor volume inhibition is determined by calculating RTVI (%) (1-RTV %)

[16] = Xenograft murine myeloma model, body weight and toxicity signs; assay type: in vivo; details: during the experiment
Procedure: In vivo anti-cancer efficacy of the molecules was evaluated in a xenograft murine myeloma model. Male SCID mice (6-8 weeks old) were maintained in accordance with Institutional Animal Care Use Committee guidelines. Mice were housed in the Animal Research Facility of Ariel University and experiments were performed in accordance with approved protocols. During the experiment, RPMI8226 myeloma cells in exponential growth were harvested from culture, washed three times with sterile PBS, counted and resuspended in sterile PBS (1.5×10^7cells mouse/0.1 ml PBS) and subcutaneously injected on the right flank of male C.B-17/IcrHsd-Prkdc-scid, […] mice. After two weeks of cells injection, when tumors reached a size between 30-60 mm3, mice were assigned into different groups (n=3-5) and started receiving treatment. Body weights were determined twice weekly along with tumor volume {V=[length×(width)2]/2}measurements using electronical caliper. Mice were sacrificed when mean tumor volume of vehicle treated group reached 1500 mm3, or mice appeared moribund to prevent unnecessary morbidity.
The weight of the tumors was measured at the end of the experiment and expressed as mean tumor weight per group. Body weight is expressed as mean body mice weight per group.

[17] = system: purified tubulin; assay: Tubulin polymerization, cell-free assay; assay type: biochemical; details: tubulin 2.00 mg/mL; 1, 15 and 30 μM; 37° C., 100 min; vs vehicle
Procedure: The effect of the compounds on their ability to inhibit tubulin polymerization, was tested against a vehicle control by evaluating polymerization of purified tubulin in a cell-free assay where tubulin (2.00 mg/mL) was exposed to vehicle control or 1, 15 and 30 μM of the compounds (n=2). Polymerizations were tracked by an increase in fluorescence excitation wavelength is 340-360 nm and emission wavelength at 410-460 nm. Fluorescence was monitored at 37° C. every 30 sec for 100 min.

For `Cc1c(C(=O)OCCCCN)oc2c1C(=O)CC(c1ncco1)C2.Cl` (stereo not shown) [SMS228, 4-((3-methyl-6-(oxazol-2-yl)-4-oxo-4,5,6,7-tetrahydrobenzofuran-2-carbonyl)oxy)butan-1-aminium chloride], the pIC50 ([1]; RPMI-8226) was 5.81, the pIC50 [2] was 5.88 and the “IC50 ratio between resistant and non-resistant cells” value [2] was 0.853. For the same compound, the pIC50 [3] was 5.89, the “IC50 ratio between resistant and non-resistant cells” value [3] was 0.847 and the pIC50 [4] was 5.65. The “IC50 ratio between resistant and non-resistant cells” value [4] was over 1.454, the pIC50 [5] was 5.35 and the “IC50 ratio between resistant and non-resistant cells” value [6] was over 0.406. For the same compound, the pIC50 [6] was under 5.74, the pIC50 [7] was 6.46 and the pIC50 [8] was 6.44. For the same compound, the “IC50 ratio between resistant and non-resistant cells” value [8] was 1.029, the pIC50 [9] was 5.06 and the pIC50 [10] was 4.91. The “IC50 ratio between resistant and non-resistant cells” value [10] was 1.400, the pIC50 [11] was 5.02 and the pIC50 [12] was 5.13. For the same compound, the “IC50 ratio between resistant and non-resistant cells” value [12] was 0.778, the “prevention of covalent binding of EBI to the colchicine binding site” value [13] was “did not prevent the covalent binding of EBI to the colchicine binding site” and the cell cycle arrest [14] was “cell cycle arrest in G2M phase”. The “Relative tumor volume inhibition” value ([15]; 15 mg/kg intraperitoneally, after 21 days) was 20%, the “Relative tumor volume inhibition” value ([15]; 30 mg/kg intraperitoneally, after 21 days) was 23% and the “growth inhibition rate (tumor weight at end of experiment)” value ([15]; 30 mg/kg subcutaneously) was 70%. The “Relative tumor volume inhibition” value ([15]; 30 mg/kg subcutaneously, after 19 days) was 45%, the “tumor volume lower in the treated group vs vehicle” value ([15]; 30 mg/kg subcutaneously, beginning of the experiment) was 56% and the “tumor volume lower in the treated group vs vehicle” value ([15]; 30 mg/kg subcutaneously, day 21) was 76%. For the same compound, the “Relative tumor volume inhibition” value ([15]; 50 mg/kg intraperitoneally, after 21 days) was 42%, the “decrease of tumor volume as compared to vehicle at the same day” value ([15]; 50 mg/kg intraperitoneally, day 7 to 19) was 30% and the “decrease of tumor volume as compared to vehicle at the same day” value ([15]; 50 mg/kg intraperitoneally, day 21) was 40%. For the same compound, the “growth inhibition rate (tumor weight at end of experiment)” value ([15]; intraperitoneally) was 44%, the “body weight and other signs of potential toxicity” value ([16]; 30 mg/kg subcutaneously) was “No significant changes in body weight or other signs of potential toxicity” and the “body weight and other signs of potential toxicity” value ([16]; intraperitoneally) was “No significant changes in body weight or other signs of potential toxicity”.
With `Cc1c(C(=O)OC2CCCC2)[nH]c2c1C(=O)CC(c1ncco1)C2` (stereo not shown) [SMS101, cyclopentyl 3-methyl-6-(oxazol-2-yl)-4-oxo-4,5,6,7-tetrahydro-1H-indole-2-carboxylate] the pIC50 ([1]; RPMI 8226, multiple myeloma, non-resistant, read-out: IC50) was 7.05, the pIC50 ([2]; RPMI-DOX40, multiple myeloma, P-gp overexpression, read-out: IC50) was 7.11 and the “IC50 ratio between resistant and non-resistant cells” value [2] was 0.856. The pIC50 ([3]; RPMI-LR5, multiple myeloma, melphalan resistant, read-out: IC50) was 7.14, the “IC50 ratio between resistant and non-resistant cells” value [3] was 0.811 and the pIC50 ([4]; RPMI-MR20, mitoxantrone resistant, read-out: IC50) was 7.00. For the same compound, the “IC50 ratio between resistant and non-resistant cells” value [4] was 1.100, the pIC50 ([5]; multiple myeloma, non-resistant, read-out: IC50) was 6.89 and the “IC50 ratio between resistant and non-resistant cells” value [6] was 3.953. The pIC50 ([6]; MM1.R, multiple myeloma, dexamethasone resistant, read-out: IC50) was 6.29, the pIC50 ([7]; NALM6, acute lymphoblastic leukemia, non-resistant, read-out: IC50) was 7.32 and the “IC50 ratio between resistant and non-resistant cells” value [8] was 0.875. The pIC50 ([8]; N6/ADR, acute lymphoblastic leukemia, P-gp overexpression, read-out: IC50) was 7.38, the pIC50 [9] was 4.92 and the pIC50 [10] was 6.45. For the same compound, the “IC50 ratio between resistant and non-resistant cells” value [10] was 0.029, the pIC50 [11] was 6.73 and the pIC50 [12] was 6.67. For the same compound, the “IC50 ratio between resistant and non-resistant cells” value [12] was 1.145, the “rate of tubulin polymerization” value [17] was “inhibited the rate of tubulin polymerization in a concentration-dependent manner” and the “prevention of covalent binding of EBI to the colchicine binding site” value [13] was “prevented the covalent binding of EBI to the colchicine binding site”. For the same compound, the cell cycle arrest [14] was “cell cycle arrest in G2M phase”.
